Legend:
[1] = test system: Avian influenza H5N1 virus, A/Vietnam/1203/04; assay type: cell-based
[2] = test system: human influenza H1N1 virus, A/HK/54/98; assay type: cell-based
H5N1 virus = assay type: cell-based, influenza A H5N1 virus
H1N1 virus = assay type: cell-based, influenza A H1N1 virus
dihydrofolic reductase = molecular target: T1, dihydrofolic reductase (Homo sapiens, UniProt P00374); conditions: Baker and Jordaan, J. Med. Chem. 1965; cited from earlier work
T1 sequence (P00374 1-187): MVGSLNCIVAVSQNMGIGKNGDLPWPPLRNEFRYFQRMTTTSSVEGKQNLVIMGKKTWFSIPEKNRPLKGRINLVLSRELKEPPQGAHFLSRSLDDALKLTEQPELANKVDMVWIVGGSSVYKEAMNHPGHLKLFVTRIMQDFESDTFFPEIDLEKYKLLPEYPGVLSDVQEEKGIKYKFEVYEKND

[3] = test system: Primary human blood macrophages; experiment: Cell viability test (MTT); conditions: 100 uM
MDCK cells = experiment: Cell viability test (MTT); conditions: 100 uM

Row | SMILES | inhibition of replication of H5N1 virus (in words) [1] | inhibition of replication of H1N1 virus (in words) [2] | level of H5N1 viruses on the surface of MDCK cells (H5N1 virus) | level of H1N1 viruses on the surface of MDCK cells (H1N1 virus) | inhibition of dihydrofolic reductase (dihydrofolic reductase) | degree of cytotoxicity (MTT, OD560-OD670 of sample / DMSO) ([3]; 72 hours, primary human blood macrophages, relative to DMSO) | cytotoxicity (in words) ([3]; primary macrophages, compared with DMSO) | degree of cytotoxicity (MTT, OD560-OD670 of sample / DMSO) (MDCK cells; 72 hours, relative to DMSO) | cytotoxicity (in words) (MDCK cells; compared with DMSO) | H5N1 virus titer [1]
1 | Cc1nc(N)nc(O)c1CCCNc1ccc(/C=C/C(=O)CCl)cc1 [NSC#89853, 4-(4-((3-(2-amino-4-hydroxy-6-methyl-5-pyrimidinyl)propyl)amino)phenyl)-1-chloro-3-buten-2-one] | inhibits the replication | inhibits the replication | lower | lower | inhibitor | 1.1 | does not display cytotoxicity | 2.2 | does not display cytotoxicity | –
2 | CCOC(=O)C1=C[C@@H](OC(CC)CC)[C@H](NC(C)=O)[C@@H](N)C1 [oseltamivir, reference compound] | – | – | lower | lower | – | – | – | – | – | 2.46 × 10^6 TCID50/ml

Source: patent publication US8673884B2 (priority 2008, dated 2014)
